Results: US20130058998A1, “ENCAPSULATED N-ACETYLMANNOSAMINE OR N-ACETYLNEURAMINIC ACID TO INCREASE SIALYLATION” (United States of America as represented by the Secretary, …, priority 2011, published 2013)

Experiments:
cultured cells = conditions: Charter et al. 2000; cited from earlier work
[1] = system: HIBM Gne M712T mutated pups; assay: Survival of mutant HIBM Gne M712T pups after treatment; assay type: in vivo, mouse; conditions: for survival of mutant pups at P5: Gne M712T mutant pups, untreated 8% survived; for survival rates: orally delivered in drinking water, -/- pups
[2] = system: Gne-deficient mouse embryonic stem cells; conditions: growth medium supplemented with ManNAc; Schwarzkopf et al. 2002; cited from earlier work
[3] = oral (not liposome-embedded), addition to drinking water

SMILES | incorporation of sialic acid analogs (SiaLev or SiaNAz) into cell surface glycoconjugates (cultured cells) | survival of mutant pups at P5 ([1]; intravenous (IV) injection at P1, ManNAc-Lipoplex in 2 different mouse backgrounds) [%] | survival of mutant pups at P5 [1, 3] [%] | survival rates [1] [%] | sialylation of hyposialylated cells [2]
CC(=O)CCC(=O)N[C@@H]1C(O)O[C@H](CO)[C@@H](O)[C@@H]1O (some centres unmarked) [ManLev, N-levulinoylmannosamine] | resulted in incorporation of the downstream sialic acid analogs |  |  |  | 
CC(=O)N[C@H]1[C@@H](O)[C@H](O)[C@@H](CO)O[C@H]1O [ManNAc, N-acetyl-D-mannosamine] |  | 8 | 48 | 48 | became resialylated
[N-]=[N+]=NCC(=O)N[C@@H]1C(O)O[C@H](CO)[C@@H](O)[C@@H]1O (some centres unmarked) [ManNAz, N-azidoacetyl-mannosamine] | resulted in incorporation of the downstream sialic acid analogs |  |  |  | 
CC(=O)N[C@H]1[C@H]([C@H](O)[C@H](O)CO)OC(O)(C(=O)O)C[C@@H]1O (some centres unmarked) [NANA, N-acetylneuraminic acid] |  |  | 10 | 10 | 
